System: IGROV1 complex spheroids (HUVEC, MSC), viability % test/control
Assay: Anticancer human tumor IGROV1 cell line growth inhibition [GQUAD];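 further: spheroids exposed to compounds for 7 days before readout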;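 on viability, T/C: 100% = DMSO vehicle control viability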
Details: for IC50: curve of first compound; for viability, T/C: stronger effect = lower value
Method in brief: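 Multi-cell-type spheroids of tumor cells with HUVEC and mesenchymal stem cells, treated with drug combinations. Concentrations descend in half-log steps from near clinical Cmax, or from 10 microM where Cmax is unknown; viability read-out.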

[1] = second compound 0.0316 µM, first compound 0.0316 µM
[2] = second compound 0.0316 µM, first compound 0.1 µM
[3] = second compound 0.0316 µM, first compound 0.316 µM
[4] = second compound 0.0316 µM, first compound 1 µM
[5] = second compound 0.0316 µM, first compound 3.16 µM
[6] = second compound 0.0316 µM, first compound 10 µM
[7] = second compound 0.1 µM, first compound 0.0316 µM
[8] = second compound 0.1 µM, first compound 0.1 µM
[9] = second compound 0.1 µM, first compound 0.316 µM
[10] = second compound 0.1 µM, first compound 1 µM
[11] = second compound 0.1 µM, first compound 3.16 µM
[12] = second compound 0.1 µM, first compound 10 µM
[13] = second compound 0.316 µM, first compound 0.0316 µM
[14] = second compound 0.316 µM, first compound 0.1 µM
[15] = second compound 0.316 µM, first compound 0.316 µM
[16] = second compound 0.316 µM, first compound 1 µM
[17] = second compound 0.316 µM, first compound 3.16 µM
[18] = second compound 0.316 µM, first compound 10 µM
[19] = second compound 1 µM, first compound 0.0316 µM
[20] = second compound 1 µM, first compound 0.1 µM
[21] = second compound 1 µM, first compound 0.316 µM
[22] = second compound 1 µM, first compound 1 µM
[23] = second compound 1 µM, first compound 3.16 µM
[24] = second compound 1 µM, first compound 10 µM
[25] = second compound 3.16 µM, first compound 0.0316 µM
[26] = second compound 3.16 µM, first compound 0.1 µM
[27] = second compound 3.16 µM, first compound 0.316 µM
[28] = second compound 3.16 µM, first compound 1 µM
[29] = second compound 3.16 µM, first compound 3.16 µM
[30] = second compound 3.16 µM, first compound 10 µM
[31] = second compound 10 µM, first compound 0.0316 µM
[32] = second compound 10 µM, first compound 0.1 µM
[33] = second compound 10 µM, first compound 0.316 µM
[34] = second compound 10 µM, first compound 1 µM
[35] = second compound 10 µM, first compound 3.16 µM
[36] = second compound 10 µM, first compound 10 µM

C#Cc1c(F)ccc2cc(O)cc(-c3ncc4c(N5CC6CCC(C5)N6)nc(OCC56CCCN5CC(F)C6)nc4c3F)c12 (stereo not given) + Cc1cnc(CNC(=O)c2c(=O)c3ccc(N4CCCN(C)CC4)nc3n3c2sc2ccccc23)cn1
IC50 (second compound 0.0316 µM): 2820 nM
IC50 (second compound 0.1 µM): < 31.6 nM
IC50 (second compound 0.316 µM): < 31.6 nM
IC50 (second compound 1 µM): < 31.6 nM
IC50 (second compound 3.16 µM): < 31.6 nM
IC50 (second compound 10 µM): < 31.6 nM
viability, T/C [1]: 70%
viability, T/C [2]: 67.6%
viability, T/C [3]: 58.5%
viability, T/C [4]: 56.4%
viability, T/C [5]: 47.6%
viability, T/C [6]: 45.3%
viability, T/C [7]: 40.6%
viability, T/C [8]: 41.9%
viability, T/C [9]: 36.5%
viability, T/C [10]: 27.3%
viability, T/C [11]: 35.8%
viability, T/C [12]: 17.3%
viability, T/C [13]: 21.4%
viability, T/C [14]: 21.5%
viability, T/C [15]: 20.7%
viability, T/C [16]: 24.7%
viability, T/C [17]: 18.3%
viability, T/C [18]: 15.1%
viability, T/C [19]: 16.7%
viability, T/C [20]: 16.4%
viability, T/C [21]: 11.1%
viability, T/C [22]: 13.3%
viability, T/C [23]: 14.5%
viability, T/C [24]: 7.91%
viability, T/C [25]: 9.65%
viability, T/C [26]: 9.22%
viability, T/C [27]: 8.28%
viability, T/C [28]: 10.1%
viability, T/C [29]: 10%
viability, T/C [30]: 6.58%
viability, T/C [31]: 7.28%
viability, T/C [32]: 7.39%
viability, T/C [33]: 9.03%
viability, T/C [34]: 8.87%
viability, T/C [35]: 8.84%
viability, T/C [36]: 7.64%

CC(=O)O[C@H]1C(=O)[C@@]2(C)[C@H]([C@H](OC(=O)c3ccccc3)[C@]3(O)C[C@H](OC(=O)[C@H](O)[C@@H](NC(=O)c4ccccc4)c4ccccc4)C(C)=C1C3(C)C)[C@]1(OC(C)=O)CO[C@@H]1C[C@@H]2O + Cc1cnc(CNC(=O)c2c(=O)c3ccc(N4CCCN(C)CC4)nc3n3c2sc2ccccc23)cn1
IC50 (second compound 0.0316 µM): < 31.6 nM
IC50 (second compound 0.1 µM): < 31.6 nM
IC50 (second compound 0.316 µM): < 31.6 nM
IC50 (second compound 1 µM): < 31.6 nM
IC50 (second compound 3.16 µM): < 31.6 nM
IC50 (second compound 10 µM): < 31.6 nM
viability, T/C [1]: 6.85%
viability, T/C [2]: 7.2%
viability, T/C [3]: 5.93%
viability, T/C [4]: 4.84%
viability, T/C [5]: 5.81%
viability, T/C [6]: 5%
viability, T/C [7]: 8.41%
viability, T/C [8]: 6.77%
viability, T/C [9]: 4.59%
viability, T/C [10]: 5.47%
viability, T/C [11]: 5.23%
viability, T/C [12]: 5.1%
viability, T/C [13]: 7.94%
viability, T/C [14]: 7.36%
viability, T/C [15]: 5.21%
viability, T/C [16]: 5.4%
viability, T/C [17]: 5.37%
viability, T/C [18]: 5.62%
viability, T/C [19]: 8.3%
viability, T/C [20]: 8.57%
viability, T/C [21]: 6.36%
viability, T/C [22]: 6.43%
viability, T/C [23]: 6.28%
viability, T/C [24]: 5.79%
viability, T/C [25]: 7.17%
viability, T/C [26]: 6.44%
viability, T/C [27]: 7.03%
viability, T/C [28]: 6.22%
viability, T/C [29]: 6.75%
viability, T/C [30]: 5.4%
viability, T/C [31]: 5.82%
viability, T/C [32]: 6.66%
viability, T/C [33]: 6.12%
viability, T/C [34]: 6.29%
viability, T/C [35]: 6.72%
viability, T/C [36]: 6.2%

CCCS(=O)(=O)Nc1ccc(F)c(C(=O)c2c[nH]c3ncc(-c4ccc(Cl)cc4)cc23)c1F + Cc1cnc(CNC(=O)c2c(=O)c3ccc(N4CCCN(C)CC4)nc3n3c2sc2ccccc23)cn1
IC50 (second compound 0.0316 µM): 1470 nM
IC50 (second compound 0.1 µM): < 31.6 nM
IC50 (second compound 0.316 µM): < 31.6 nM
IC50 (second compound 1 µM): < 31.6 nM
IC50 (second compound 3.16 µM): < 31.6 nM
IC50 (second compound 10 µM): < 31.6 nM
viability, T/C [1]: 77.1%
viability, T/C [2]: 71.3%
viability, T/C [3]: 50.1%
viability, T/C [4]: 52.3%
viability, T/C [5]: 51.9%
viability, T/C [6]: 14.2%
viability, T/C [7]: 44.5%
viability, T/C [8]: 42.7%
viability, T/C [9]: 41.1%
viability, T/C [10]: 31.6%
viability, T/C [11]: 37.9%
viability, T/C [12]: 9.64%
viability, T/C [13]: 21%
viability, T/C [14]: 33.1%
viability, T/C [15]: 25.4%
viability, T/C [16]: 24.6%
viability, T/C [17]: 14.4%
viability, T/C [18]: 7.38%
viability, T/C [19]: 15.1%
viability, T/C [20]: 17.2%
viability, T/C [21]: 11.9%
viability, T/C [22]: 15.9%
viability, T/C [23]: 14.6%
viability, T/C [24]: 5.36%
viability, T/C [25]: 9.19%
viability, T/C [26]: 7.43%
viability, T/C [27]: 10.5%
viability, T/C [28]: 10.6%
viability, T/C [29]: 9.32%
viability, T/C [30]: 4.31%
viability, T/C [31]: 10.1%
viability, T/C [32]: 9.63%
viability, T/C [33]: 8.82%
viability, T/C [34]: 8.04%
viability, T/C [35]: 6.37%
viability, T/C [36]: 5.19%

COc1cccc2c1C(=O)c1c(O)c3c(c(O)c1C2=O)CC(O)(C(=O)CO)CC3OC1CC(N)C(O)C(C)O1 (stereo not given) + Cc1cnc(CNC(=O)c2c(=O)c3ccc(N4CCCN(C)CC4)nc3n3c2sc2ccccc23)cn1
IC50 (second compound 0.0316 µM): < 31.6 nM
IC50 (second compound 0.1 µM): < 31.6 nM
IC50 (second compound 0.316 µM): < 31.6 nM
IC50 (second compound 1 µM): < 31.6 nM
IC50 (second compound 3.16 µM): < 31.6 nM
IC50 (second compound 10 µM): < 31.6 nM
viability, T/C [1]: 40.4%
viability, T/C [2]: 21.2%
viability, T/C [3]: 7.47%
viability, T/C [4]: 4.08%
viability, T/C [5]: 0.07%
viability, T/C [6]: 0.9%
viability, T/C [7]: 29.5%
viability, T/C [8]: 15.3%
viability, T/C [9]: 9.07%
viability, T/C [10]: 3.71%
viability, T/C [11]: 0.05%
viability, T/C [12]: 0.74%
viability, T/C [13]: 18.7%
viability, T/C [14]: 14.9%
viability, T/C [15]: 7.44%
viability, T/C [16]: 3.57%
viability, T/C [17]: 0.07%
viability, T/C [18]: 0.73%
viability, T/C [19]: 11.8%
viability, T/C [20]: 9.55%
viability, T/C [21]: 7.95%
viability, T/C [22]: 3.7%
viability, T/C [23]: 0.05%
viability, T/C [24]: 0.66%
viability, T/C [25]: 10.9%
viability, T/C [26]: 9.14%
viability, T/C [27]: 6.91%
viability, T/C [28]: 2.27%
viability, T/C [29]: 0.07%
viability, T/C [30]: 0.41%
viability, T/C [31]: 11.1%
viability, T/C [32]: 8.57%
viability, T/C [33]: 5.52%
viability, T/C [34]: 1.8%
viability, T/C [35]: 0.14%
viability, T/C [36]: 0.45%

O=c1[nH]cc(F)c(=O)[nH]1 + Cc1cnc(CNC(=O)c2c(=O)c3ccc(N4CCCN(C)CC4)nc3n3c2sc2ccccc23)cn1
IC50 (second compound 0.0316 µM): 4520 nM
IC50 (second compound 0.1 µM): < 31.6 nM
IC50 (second compound 0.316 µM): < 31.6 nM
IC50 (second compound 1 µM): < 31.6 nM
IC50 (second compound 3.16 µM): < 31.6 nM
IC50 (second compound 10 µM): < 31.6 nM
viability, T/C [1]: 69.8%
viability, T/C [2]: 66.3%
viability, T/C [3]: 51.5%
viability, T/C [4]: 66.9%
viability, T/C [5]: 63.7%
viability, T/C [6]: 20.2%
viability, T/C [7]: 39.9%
viability, T/C [8]: 38.9%
viability, T/C [9]: 41.9%
viability, T/C [10]: 36.1%
viability, T/C [11]: 35.7%
viability, T/C [12]: 17.7%
viability, T/C [13]: 27.9%
viability, T/C [14]: 23.6%
viability, T/C [15]: 29.5%
viability, T/C [16]: 25.2%
viability, T/C [17]: 25.8%
viability, T/C [18]: 15.1%
viability, T/C [19]: 15.6%
viability, T/C [20]: 15.3%
viability, T/C [21]: 17.3%
viability, T/C [22]: 19%
viability, T/C [23]: 20.4%
viability, T/C [24]: 9.16%
viability, T/C [25]: 11.3%
viability, T/C [26]: 15.5%
viability, T/C [27]: 14.1%
viability, T/C [28]: 9.51%
viability, T/C [29]: 12.9%
viability, T/C [30]: 7.27%
viability, T/C [31]: 11.2%
viability, T/C [32]: 8.66%
viability, T/C [33]: 10.8%
viability, T/C [34]: 9.81%
viability, T/C [35]: 9.32%
viability, T/C [36]: 5.96%

— PubChem BioAssay AID2060486 (Molecular Pharmacology Branch, DTP, NCI, 2025)
